Source: patent US9061038B2, “Doxorubicin adjuvants to reduce toxicity and methods for using the same” (Tosk, Incorporated, priority 2008, dated 2015)
“Also recorded” adds a separate entry of the source. Where a name gives a salt, the structure may show the parent alone.

Tests used:
[1] = cited from earlier work
[2] = tested on: CCRF-CEM human cancer cells; test: Cell culture study: interference with doxorubicin activity, alamarBlue cell viability; format: cell-based; settings: doxorubicin 0.01, 0.1, 1.0 μM with TK-115339 0.01, 0.1, 1.0 μM, 72 hour incubation
Method: The aim of this study was to examine whether or not a representative nitrone test article, TK-115339, interfered with the desired activity of doxorubicin in vitro.
The tumor cell line for the cell culture study was CCRF-CEM (Human T-ALL, CCL-119) from ATCC, and cells were cultured in accordance with the product information sheets replacing 75 cm^2 culture flasks with 56.7 cm^2 Petri dishes and adding 1% penicillin-streptomycin solution and 1% GlutaMAX™ to the culture medium. The compound, TK-115339, was dissolved in DMSO then diluted to obtain initial working solutions of 1, 10 and 100 μM. […]
Cells were thawed according to ATCC protocol and plated in 10 mL of sterile filtered growth medium. […] Doxorubicin was evaluated at concentrations of 0.01, 0.1 and 1.0 μM alone or in combination with TK-115339 at concentrations of 0.01, 0.1 and 1.0 μM. […]
At the end of incubation, cell viability was determined by optical absorbance of alamarBlue® at λ=570 and 600 nm in accordance using a standard protocol provided by the vendor, Biosource. Data was analyzed using SPSS 14.0 software (SPSS Inc., Chicago, Ill.). Statistical significance of the differences between experimental groups was calculated by using one-way ANOVA followed by a Bonferroni post-hoc analysis.
Cells were prepared and tested as described above. […] For each condition, 12 replicates were analyzed. […]

CD-1 mice [3] = test: Mouse study: protection against doxorubicin-induced cardiac damage, plasma cardiac troponin I (cTnI) ELISA; format: in vivo; settings: 25 mg/kg doxorubicin ip, 1.0 or 3.0 mg/kg TK-115339 ip 3 hours before and after doxorubicin, single ip on days 2-4, plasma on day 5 (96 hours)
Source text: To this end, a representative nitrone test article (TK-115339) was examined for its ability to mitigate one aspect of doxorubicin-induced toxicity, cardiac damage, in CD-1 mice as determined by concentration of cardiac troponin I (cTnI) in animal plasma (Li et al., Circulation, 113:535-43 (2006) and Hou et al., J Lab Clin Med., 146: 299-303 (2005). Doxorubicin was purchased from Xinchem Corporation (China). TK-115339 was synthesized at the University of California, Santa Cruz. […]
On days 2, 3 and 4, the mice received a single ip injection of either 1 or 3 mg/kg of TK-115339. […] The plasma samples were analyzed for cTnI using a commercial ELISA test according to the manufacture's recommendations (Life Diagnostics, Inc., Cat. No. 2010-1-HSP).
(§1) Data was analyzed using SPSS software (SPSS Inc., Chicago, Ill.). […]
Representative of the data shown in FIG. 1, mice (10 animals/treatment group) were dosed ip on Day 1 with vehicle (pH 7.4 buffered saline), 25 mg/kg doxorubicin ip or 25 mg/kg doxorubicin ip plus 1.0 or 3.0 mg/kg TK-115339 3 hours before, and after, the doxorubicin treatment. […] The plasma samples were analyzed for cTnI using a commercial ELISA test for troponin I. Boxplots of troponin findings from the study are provided in FIG. 1.

CD-1 mice [4] = test: Mouse dose response study: protection against doxorubicin-associated cardiotoxicity, plasma cTnI ELISA; format: in vivo; settings: 25 mg/kg doxorubicin ip, 0.0001, 0.001, 0.01, 0.1 or 1.0 mg/kg TK-115339 ip 3 hours before and after doxorubicin, plasma on day 5
Method: The aim of this study was to establish the dose response for the protection afforded by TK-115339 against doxorubicin-associated cardiotoxicity.
Eight to ten-week-old male CD-1 male mice (Charles River, Hollister, Calif.) weighing 30-35 g were housed in a climate-controlled environment, the light was controlled (light:dark, 12:12), and the animals were given food and water ad libitum. The animals (12 animals/treatment group) were dosed ip (200 μl volume) on day 1 with 25 mg/kg doxorubicin or 25 mg/kg doxorubicin plus 0.0001, 0.001, 0.01, 0.1 or 1.0 mg/kg TK-115339 3 hours before, and after, the doxorubicin treatment. […]
On days 2 and 3 the mice received a single ip injection of either saline (doxorubicin alone group) or […] (dose ranging experimental groups). […] The plasma samples were analyzed for cTnI using a commercial ELISA test according to the manufacture's recommendations (Life Diagnostics, Inc., Cat. No. 2010-1-HSP).
as §1
Representative of the data shown in FIG. 2, mice (12 animals/treatment group) were dosed ip on Day 1 with 25 mg/kg doxorubicin or 25 mg/kg doxorubicin plus 0.0001, 0.001, 0.01, 0.1 or 1.0 mg/kg TK-115339 3 hours before, and after, the doxorubicin treatment. […] The plasma samples were analyzed for cTnI using a commercial ELISA test.

SMILES | solubility in methanol ([1]; methanol) | solubility in water ([1]; water) | interference with tumor cell anti-growth activity (cytotoxicity) of doxorubicin, cell viability [2] | protection from doxorubicin-induced cardiac damage estimated by plasma cardiac troponin I (cTnI) (CD-1 mice [3]) | dose response of protection from doxorubicin-induced cardiac damage (plasma cardiac troponin) (CD-1 mice [4])
COc1cccc2c1C(=O)c1c(O)c3c(c(O)c1C2=O)C[C@@](O)(C(=O)CO)C[C@@H]3O[C@H]1C[C@H](N)[C@H](O)[C@H](C)O1 [Doxorubicin hydrochloride, 5,12-naphthacenedione,10-[(3-amino-2,3,6-trideoxy-α-L-Iyxo-hexopyranosyl)oxy]-7,8,9,10-tetrahydro-6,8,11-trihydroxy-8-(hydroxyacetyl)-1-methoxy-, hydrochloride, (8S-cis)-(9Cl)] | slightly soluble in methanol | soluble in water |  |  | 
CC(C)(C)[N+]([O-])=Cc1ccc(SSc2ccc(C=[N+]([O-])C(C)(C)C)cc2)cc1 [TK-115339, symmetrical disulfide conjugate of alpha-(4-sulfanylphenyl)-N-tert-butylnitrone] |  |  | does not interfere with the toxicity of doxorubicin; also recorded: does not interfere with the tumor cell anti-growth activity of doxorubicin | mitigate one aspect of doxorubicin-induced toxicity, cardiac damage in CD-1 mice; also recorded: protects mice from doxorubicin-induced cardiac damage | dose-response for the protection; also recorded: dose proportional
